Laboratory results as given in paper PMC5775429, “LY2087101 and dFBr share transmembrane binding sites in the (α4)3(β2)2 Nicotinic Acetylcholine Receptor” (Scientific Reports, 2018).
Where “and” joins values, the source holds several entries; their conditions need not be identical. Identical values can stand only once.

Assays:
Assay in all cases: Two-electrode voltage-clamp of ACh-induced currents in Xenopus oocytes
Format in all cases: cell-based
[1] = molecular target: T1, (α4C254S)3(β2)2 nAChR (Homo sapiens, UniProt P17787+P43681, C254S)
T1 construct: expressed in transfected cells; host or cells: Xenopus laevis oocytes injected with cRNA
T1 sequence (P43681 29-627 C254S limits assumed): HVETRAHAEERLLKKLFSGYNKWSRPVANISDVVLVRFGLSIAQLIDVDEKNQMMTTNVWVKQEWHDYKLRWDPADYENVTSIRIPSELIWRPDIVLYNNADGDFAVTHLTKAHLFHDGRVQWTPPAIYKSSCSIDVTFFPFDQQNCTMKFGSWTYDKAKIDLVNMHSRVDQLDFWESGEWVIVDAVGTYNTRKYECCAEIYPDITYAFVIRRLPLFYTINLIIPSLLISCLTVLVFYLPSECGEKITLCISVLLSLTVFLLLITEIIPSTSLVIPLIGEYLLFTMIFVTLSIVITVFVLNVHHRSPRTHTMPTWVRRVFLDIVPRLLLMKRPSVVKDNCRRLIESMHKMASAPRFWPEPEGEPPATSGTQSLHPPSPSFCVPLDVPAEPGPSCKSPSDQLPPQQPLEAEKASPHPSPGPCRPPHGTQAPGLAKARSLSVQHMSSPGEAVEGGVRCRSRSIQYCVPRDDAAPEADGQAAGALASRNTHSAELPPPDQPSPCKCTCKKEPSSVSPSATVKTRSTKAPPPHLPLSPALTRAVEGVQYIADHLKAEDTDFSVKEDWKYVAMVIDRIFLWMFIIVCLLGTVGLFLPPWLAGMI
T1 sequence (P17787 26-502): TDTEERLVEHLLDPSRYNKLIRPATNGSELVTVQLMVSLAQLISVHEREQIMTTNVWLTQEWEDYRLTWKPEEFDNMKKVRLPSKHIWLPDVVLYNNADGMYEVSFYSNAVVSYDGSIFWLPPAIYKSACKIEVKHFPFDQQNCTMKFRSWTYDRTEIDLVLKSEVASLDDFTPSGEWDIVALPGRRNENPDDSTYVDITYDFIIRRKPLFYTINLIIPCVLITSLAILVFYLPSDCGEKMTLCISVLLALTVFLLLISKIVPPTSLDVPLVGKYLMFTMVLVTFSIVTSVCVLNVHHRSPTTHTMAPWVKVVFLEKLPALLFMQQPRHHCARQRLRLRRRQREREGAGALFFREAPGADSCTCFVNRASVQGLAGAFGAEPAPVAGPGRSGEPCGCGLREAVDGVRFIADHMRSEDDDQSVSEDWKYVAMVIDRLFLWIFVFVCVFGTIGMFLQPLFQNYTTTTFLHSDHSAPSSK
Procedure: (§1) For amino acid substitutions within the α4 nAChR subunit, point mutations were introduced into pSP64ployA plasmid with cDNA encoding for human α4 nAChR subunit with mutagenic primer pairs using the Quick Change II Site-Directed Mutagenesis Kit (Agilent Technologies) then confirmed by DNA sequencing (GENEWIZ, LLC, South Plainfield, NJ). cRNA transcripts suitable for oocyte expression were prepared in vitro from linearized plasmids [α3 (BamH1), α4 (AseI), β2 (PvuII), β4 (XhoI)] using mMESSAGE mMACHINE high yield capped RNA transcription kits (Ambion) and purified on NucAway Spin column (Invitrogen). cRNA concentration was determined by spectroscopy (Concentration (ug/ul) = Abs260 * 40), aliquoted and stored at −80 °C until used.
(§2) Ovarian lobules were surgically harvested from oocytes-positive female Xenopus laevis (NASCO, Fort Atkinson, WI) according to an animal use protocol approved by the Texas A&M Health Sciences Center Institutional Animals Care and Use Committee. The Texas A&M Health Sciences Center Research Facility is registered as an animal research facility with the United States Department of Agriculture and is fully accredited by the American Association for Accreditation of Laboratory Animal Care (AAALAC). For oocytes defolliculation, ovarian lobes were treated with 3 mg/ml collagenase type 2 (Worthington Biomedical, Lakewood, NJ) in Ca + 2-free buffer (85 mM NaCl, 2.5 mM KCl, 1 mM MgCl2, 5 mM HEPES, pH 7.6). Collagenase treatment was allowed to proceed for 3 hours at room temperature with gentle shaking then oocytes were washed several times with buffer to remove collagenase then with ND96-gentamicine buffer. Healthy Stage V and VI oocytes were visually selected and maintained at 18 °C in modified ND96-gentamicine buffer (96 mM NaCl, 2 mM KCl, 1.8 mM CaCl2, 1 mM MgCl2, 5 mM HEPES, 50 µg/ml gentamicin, pH 7.6). Oocytes were injected with 50–100 ng of the desired nAChR subunits cRNA mix at ratios of 8α:1β or 1α:8β to express nAChRs with subunit stoichiometries of 3α:2β (low agonist sensitivity) or 2α:3β (high agonist sensitivity), respectively.
(§3) Oocytes were continuously perfused with recording buffer (100 mM NaCl, 2 mM KCl, 1 mM CaCl2, 0.8 mM MgCl2, 1 mM EGTA, 10 mM Hepes, pH 7.5) except during periods of drug applications.

[2] = molecular target: (α4C259F)3(β2)2 nAChR (Homo sapiens, UniProt P43681, C259F); details: 10 µM ACh + 1 µM PAM vs 10 µM ACh alone
Sequence of (α4C259F)3(β2)2 nAChR (P43681 29-627 C259F limits assumed): as the sequence (P43681 29-627 C254S limits assumed) above, with S226C, C231F counted along it
Sequence of (α4C259F)3(β2)2 nAChR (P17787 26-502 partner): as the sequence (P17787 26-502) above
Procedure: as §1, §2, §3

[3] = molecular target: (α4C259V)3(β2)2 nAChR (Homo sapiens, UniProt P43681, C259V); details: 10 µM ACh + 1 µM PAM vs 10 µM ACh alone
Sequence of (α4C259V)3(β2)2 nAChR (P43681 29-627 C259V limits assumed): as the sequence (P43681 29-627 C254S limits assumed) above, with S226C, C231V counted along it
Sequence of (α4C259V)3(β2)2 nAChR (P17787 26-502 partner): as the sequence (P17787 26-502) above
Procedure: as §1, §2, §3

[4] = molecular target: (α4E308V)3(β2)2 nAChR (Homo sapiens, UniProt P43681, E308V)
Sequence of (α4E308V)3(β2)2 nAChR (P43681 29-627 E308V limits assumed): as the sequence (P43681 29-627 C254S limits assumed) above, with S226C, E280V counted along it
Sequence of (α4E308V)3(β2)2 nAChR (P17787 26-502 partner): as the sequence (P17787 26-502) above
Procedure: as §1, §2, §3

[5] = molecular target: T2, (α4F312V)3(β2)2 nAChR (Homo sapiens, UniProt P17787+P43681, F312V)
T2 construct: expressed in transfected cells; host or cells: Xenopus laevis oocytes injected with cRNA
T2 sequence (P43681 29-627 F312V limits assumed): as the sequence (P43681 29-627 C254S limits assumed) above, with S226C, F284V counted along it
T2 sequence (P17787 26-502): as the sequence (P17787 26-502) above
Procedure: as §1, §2, §3

[6] = molecular target: (α4G613L)3(β2)2 nAChR (Homo sapiens, UniProt P43681, G613L)
Sequence of (α4G613L)3(β2)2 nAChR (P43681 29-627 G613L limits assumed): as the sequence (P43681 29-627 C254S limits assumed) above, with S226C, G585L counted along it
Sequence of (α4G613L)3(β2)2 nAChR (P17787 26-502 partner): as the sequence (P17787 26-502) above
Procedure: as §1, §2, §3

[7] = molecular target: T3, (α4I275V)3(β2)2 nAChR (Homo sapiens, UniProt P17787+P43681, I275V); details: 10 µM ACh + 1 µM PAM vs 10 µM ACh alone
T3 construct: expressed in transfected cells; host or cells: Xenopus laevis oocytes injected with cRNA
T3 sequence (P43681 29-627 I275V limits assumed): as the sequence (P43681 29-627 C254S limits assumed) above, with S226C, I247V counted along it
T3 sequence (P17787 26-502): as the sequence (P17787 26-502) above
Procedure: as §1, §2, §3

[8] = molecular target: T4, (α4I315A)3(β2)2 nAChR (Homo sapiens, UniProt P17787+P43681, I315A); details: 10 µM ACh + 1 µM PAM vs 10 µM ACh alone
T4 construct: expressed in transfected cells; host or cells: Xenopus laevis oocytes injected with cRNA
T4 sequence (P43681 29-627 I315A limits assumed): as the sequence (P43681 29-627 C254S limits assumed) above, with S226C, I287A counted along it
T4 sequence (P17787 26-502): as the sequence (P17787 26-502) above
Procedure: as §1, §2, §3

[9] = molecular target: T5, (α4L260M)3(β2)2 nAChR (Homo sapiens, UniProt P17787+P43681, L260M)
T5 construct: expressed in transfected cells; host or cells: Xenopus laevis oocytes injected with cRNA
T5 sequence (P43681 29-627 L260M limits assumed): as the sequence (P43681 29-627 C254S limits assumed) above, with S226C, L232M counted along it
T5 sequence (P17787 26-502): as the sequence (P17787 26-502) above
Procedure: as §1, §2, §3

[10] = molecular target: T6, (α4L291V)3(β2)2 nAChR (Homo sapiens, UniProt P17787+P43681, L291V)
T6 construct: expressed in transfected cells; host or cells: Xenopus laevis oocytes injected with cRNA
T6 sequence (P43681 29-627 L291V limits assumed): as the sequence (P43681 29-627 C254S limits assumed) above, with S226C, L263V counted along it
T6 sequence (P17787 26-502): as the sequence (P17787 26-502) above
Procedure: as §1, §2, §3

[11] = molecular target: T7, (α4M605V)3(β2)2 nAChR (Homo sapiens, UniProt P17787+P43681, M605V); details: 10 µM ACh + 1 µM PAM vs 10 µM ACh alone
T7 construct: expressed in transfected cells; host or cells: Xenopus laevis oocytes injected with cRNA
T7 sequence (P43681 29-627 M605V limits assumed): as the sequence (P43681 29-627 C254S limits assumed) above, with S226C, M577V counted along it
T7 sequence (P17787 26-502): as the sequence (P17787 26-502) above
Procedure: as §1, §2, §3

[12] = molecular target: (α4S258M)3(β2)2 nAChR (Homo sapiens, UniProt P43681, S258M); details: 10 µM ACh + 1 µM PAM vs 10 µM ACh alone
Sequence of (α4S258M)3(β2)2 nAChR (P43681 29-627 S258M limits assumed): as the sequence (P43681 29-627 C254S limits assumed) above, with S226C, S230M counted along it
Sequence of (α4S258M)3(β2)2 nAChR (P17787 26-502 partner): as the sequence (P17787 26-502) above
Procedure: as §1, §2, §3

[13] = molecular target: T8, (α4T261D)3(β2)2 nAChR (Homo sapiens, UniProt P17787+P43681, T261D); details: 10 µM ACh + 1 µM PAM vs 10 µM ACh alone
T8 construct: expressed in transfected cells; host or cells: Xenopus laevis oocytes injected with cRNA
T8 sequence (P43681 29-627 T261D limits assumed): as the sequence (P43681 29-627 C254S limits assumed) above, with S226C, T233D counted along it
T8 sequence (P17787 26-502): as the sequence (P17787 26-502) above
Procedure: as §1, §2, §3

[14] = molecular target: T9, (α4T313C)3(β2)2 nAChR (Homo sapiens, UniProt P17787+P43681, T313C); details: 10 µM ACh + 1 µM PAM vs 10 µM ACh alone
T9 construct: expressed in transfected cells; host or cells: Xenopus laevis oocytes injected with cRNA
T9 sequence (P43681 29-627 T313C limits assumed): as the sequence (P43681 29-627 C254S limits assumed) above, with S226C, T285C counted along it
T9 sequence (P17787 26-502): as the sequence (P17787 26-502) above
Procedure: as §1, §2, §3

[15] = molecular target: T10, (α4V609A)3(β2)2 nAChR (Homo sapiens, UniProt P17787+P43681, V609A); details: 10 µM ACh + 1 µM PAM vs 10 µM ACh alone
T10 construct: expressed in transfected cells; host or cells: Xenopus laevis oocytes injected with cRNA
T10 sequence (P43681 29-627 V609A limits assumed): as the sequence (P43681 29-627 C254S limits assumed) above, with S226C, V581A counted along it
T10 sequence (P17787 26-502): as the sequence (P17787 26-502) above
Procedure: as §1, §2, §3

[16] = molecular target: T11, α4β2 nAChR (Homo sapiens, UniProt P17787+P43681); details: 1 μM PAM
T11 construct: expressed in transfected cells; host or cells: Xenopus laevis oocytes injected with cRNA
T11 sequence (P43681 29-627 limits assumed): as the sequence (P43681 29-627 C254S limits assumed) above, with S226C counted along it
T11 sequence (P17787 26-502): as the sequence (P17787 26-502) above
Procedure: (§4) Next, Xenopus oocytes were injected with RNA mixes of […], α3:β4, […], or α4:β4 at ratios of 8:1, 1:1, or 1:8 to express nAChRs with different subunit composition and with various α:β ratios.
as §2, §3

[17] = molecular target: T12, α4β4 nAChR (Homo sapiens, UniProt P30926+P43681); details: 1 μM PAM
T12 construct: expressed in transfected cells; host or cells: Xenopus laevis oocytes injected with cRNA
T12 sequence (P43681 29-627 limits assumed): as the sequence (P43681 29-627 C254S limits assumed) above, with S226C counted along it
T12 sequence (P30926 22-498): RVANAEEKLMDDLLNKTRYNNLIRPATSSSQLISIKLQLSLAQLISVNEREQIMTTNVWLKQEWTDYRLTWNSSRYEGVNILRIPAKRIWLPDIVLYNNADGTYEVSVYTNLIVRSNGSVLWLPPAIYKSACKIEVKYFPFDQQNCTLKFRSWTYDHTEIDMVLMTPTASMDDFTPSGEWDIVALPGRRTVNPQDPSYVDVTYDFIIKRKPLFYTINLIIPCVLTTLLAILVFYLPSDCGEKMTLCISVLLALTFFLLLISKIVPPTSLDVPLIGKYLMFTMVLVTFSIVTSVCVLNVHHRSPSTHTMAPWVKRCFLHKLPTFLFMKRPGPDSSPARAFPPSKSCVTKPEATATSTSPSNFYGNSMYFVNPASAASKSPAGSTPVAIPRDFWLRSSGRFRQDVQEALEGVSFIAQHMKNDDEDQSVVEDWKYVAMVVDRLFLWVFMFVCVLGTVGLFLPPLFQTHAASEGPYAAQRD
Procedure: as §4, §2, §3

[18] = 10 µM ACh + 1 µM PAM vs 10 µM ACh alone
[19] = ACh concentration-response curve, normalized to 1 mM ACh alone
[20] = read-out: dFBr potentiation EC50
[21] = read-out: inhibition of ACh-current response at 10 μM dFBr

SMILES: C=CC(C)(C)c1[nH]c2cc(Br)ccc2c1CCNC [dFBr]
- R, potentiation ratio (PR) [1, 18]: 3.6 ± 0.4
- ACh Imax in the presence of 1 µM dFBr [1, 19]: 190 ± 08%
- dFBr potentiation h (Hill coefficient) ([1]; co-applied with 10 μM ACh): 0.8 ± 0.1
- dFBr potentiation Imax ([1]; normalized to 10 µM ACh alone): 430 ± 31%
- EC50 [1, 20]: 1.5 ± 0.5 µM
- R, potentiation ratio (PR) [2]: 3.1 ± 0.3
- R, potentiation ratio (PR) [3]: 4.6 ± 0.9
- R, potentiation ratio (PR) [4, 18]: 1.0 and 1.0 ± 0.1
- ACh Imax in the presence of 1 µM dFBr [4, 19]: 110 ± 06%
- dFBr concentration-dependent potentiation of ACh-current responses ([4]; dFBr up to 10 µM, 10 μM ACh): did not potentiate
- inhibition at 10 µM [4, 21]: ~45%
- R, potentiation ratio (PR) [5, 18]: 1.2 and ~ 1.2 and 1.2 ± 0.1
- dFBr concentration-dependent potentiation of ACh-current responses ([5]; dFBr up to 10 µM, 10 μM ACh): did not potentiate
- R, potentiation ratio (PR) [6, 18]: 0.8 and 0.8 ± 0.1
- ACh Imax in the presence of 1 µM dFBr [6, 19]: 157 ± 19%
- dFBr concentration-dependent potentiation of ACh-current responses ([6]; dFBr up to 10 µM, 10 μM ACh): did not potentiate
- inhibition at 10 µM [6, 21]: ~65%
- R, potentiation ratio (PR) [7]: 4.0 ± 0.6
- R, potentiation ratio (PR) [8]: 1.2 and ~ 1.2 and 1.2 ± 0.2
- R, potentiation ratio (PR) [9, 18]: 3.6 ± 0.4
- ACh Imax in the presence of 1 µM dFBr [9, 19]: 250 ± 36%
- R, potentiation ratio (PR) [10, 18]: 3.5 ± 0.2
- dFBr potentiation h (Hill coefficient) ([10]; co-applied with 10 μM ACh): 0.8 ± 0.2
- dFBr potentiation Imax ([10]; normalized to 10 µM ACh alone): 600 ± 136%
- EC50 [10, 20]: 2.9 ± 1.9 µM
- R, potentiation ratio (PR) [11]: 5.3 ± 1.2
- R, potentiation ratio (PR) [12]: 5.0 ± 0.5
- R, potentiation ratio (PR) [13]: ~ 2.1 and 2.1 ± 0.1
- R, potentiation ratio (PR) [14]: 3.9 ± 0.4
- R, potentiation ratio (PR) [15]: 3.2 ± 0.2
- potentiation of ACh responses [16]: potentiated
- potentiation of ACh responses [17]: did not potentiate
